[ ]: non-standard residue; d: D form. The star is where a group is joined. NOTA = O=C(O)CN1CCN(CC(=O)O)CCN(CC(=O)*)CC1; Oic = O=C(O)[C@@H]1C[C@@H]2CCCC[C@@H]2N1; d2Nal = N[C@H](Cc1ccc2ccccc2c1)C(=O)O; αMeF = C[C@](N)(Cc1ccccc1)C(=O)O; Orn = NCCC[C@H](N)C(=O)O; βAla = NCCC(=O)O
Key:
[1] = system: brain tumor cells and other types of cancer cells (e.g., breast and prostate); assay: cellular and nuclear uptake of Cu (ICP-MS / radiometric assays); assay type: cell-based
Experimental: Cellular uptake profiles of non-radioactive Cu-acetate and Cu-labeled peptides in B1R expressing rat F98 GBM cells were evaluated by ICP-MS analysis. Brain cancer cells were allowed to grow to confluence on a 10-cm dish. Cells were then incubated with Cu-acetate or Cu-labeled peptides (500 nM) in FBS free-DMEM at 37° C. for 15 min or 1, 4, or 20 h, respectively. For determination of nonspecific internalization, one set of dishes was incubated with the potent B1R antagonist R-954 (1 μM) at 37° C. for 10 min to block B1R prior to incubation with Cu-labeled peptides. At each time point, media was collected, and cells were acid-washed once (50 mM acetic acid/250 mM NaCl pH 2.5), to remove surface-bound fractions, and then washed twice with Phosphate-buffered saline (PBS, pH 7.4). Thereafter, cells were trypsinized, collected by centrifugation and gently washed with Hank's buffered salt solution (HBSS). Cells were solubilized in 1/1 nitric acid/30% H2O2 solution, and the amount of Cu was determined by ICP-MS. […]
Irradiating DNA is an effective way to injure and eventually kill cells. […] Pelleted cell-free nuclei were resuspended in 0.5 ml of hypotonic buffer, counted and finally solubilized in 1/1 nitric acid/30% H2O2 solution. […] Quantification of Cu content in the nuclear fractions was done by ICP-MS.

[2] = system: F98 GBM; assay: peptide receptor radionuclide therapy (PRRT), survival of F98 GBM-bearing rats; assay type: in vivo; conditions: single intravenous treatment 7.5 mCi/rat, day 10 post-inoculation
[3] = system: human solid tumors (e.g., brain and prostate) expressing naturally-occurring native B1R; assay: PET imaging of solid tumors expressing native B1R (LN-CaP tumor-bearing nude mouse, F98); assay type: in vivo
Experimental: FIGS. 4A-C illustrate in vitro cell uptake and anticancer activity of ^64Cu-NOTA-βAla-Orn^1-Arg^2-Oic^3-Pro^4-Gly^5-(αMe)Phe^6-Ser^7-DβNal^8-Ile^9-OH; ^64Cu-NOTA-B1RA) (SEQ ID NO: 6) in human prostate cancer cells (PC3 and LN-CaP). Cell uptake of ^64Cu-Nota-B1RA (in the presence or not of competitor R954) in PC3 cells measured at 20 h post-treatment by radiometric assays (A). Dose-dependent antiproliferative effects of ^64Cu-acetate and ^64Cu/Nota-B1RA on PC3 cells (B) and LN-CaP cells (C), assessed by clonogenic assays. FIG. 4 D illustrates the molecular imaging of prostate cancer with ^64Cu/Nota-B1RA. PET images of LN-CaP tumor-bearing nude mouse obtained after injection of 64Cu/Nota-B1RA (9 MBq) at 0.5 h post-injection (p.i.). […] FIG. 4F confirms the immunohistochemical (IHC) overexpression of B1R in tumoral tissues of LNCaP-bearing mice (blackiste dark-color).
FIGS. 5A-C illustrate in vitro cellular/nuclear uptake and anticancer activity of ^64Cu-NOTA-βAla-Orn^1-Arg^2-Oic^3-Pro^4-Gly^5-(αMe)Phe^6-Ser^7-DβNal^8-Ile^9-OH (Cu/Nota-B1RA) (SEQ ID NO: 6) in F98 GBM cells. Cell uptake and nuclear localization of non-radioactive, free Cu and Cu/Nota-B1RA in F98 glioma cells measured at 20 h post-treatment by ICP-MS (A). Dose-dependent antiproliferative effects of ^64Cu-acetate, ^64Cu/Nota-B1RA on F98 wildtype (B) or shRNA-B1R knockdown F98 cells (C) using clonogenic assays. […]

[4] = system: cancer cells; assay: cytotoxicity of B1R radionuclide therapy by clonogenic assays; assay type: cell-based; conditions: non-radioactive surrogate up to 10 μM
Experimental: Cytotoxicity of B1R radionuclide therapy was assessed in cancer cells by clonogenic assays. […] Then, media were removed and colonies fixed/stained with 0.5% methylene blue in 50% ethanol, rinsed with tap water and air dried. Colony counting was performed manually or automatically using the Image Pro Plus 5.1.

[5] = system: 4T1/luc metastases; assay: PET and bioluminescence imaging, 4T1/luc mouse mammary tumor metastasis model; assay type: in vivo; conditions: 4T1/luc mouse model
Experimental: PET scans were performed using a LabPET8 (Gamma Medica Inc.) small animal scanner with an axial field of view of 8 cm. F98 GBM bearing rats were injected with 74 MBq (2 mCi; 100 μL) of novel ^64Cu radiolabeled B1R peptides (agonist or antagonist) with via the caudal vein under isoflurane anesthesia. PET scans were assessed 1 h and 20 h post-injections. […] The images were reconstructed by a three dimensional MLEM algorithm implementing an analytically derived system matrix (Selivanov et al., 2000, Nuclear Science, IEEE Transactions on, 47: 1168-1175). Regions of interest were traced for tumor, normal brain, heart, liver, kidney, and muscle, and the activity in each organ was measured and reported to the injected dose for percentages calculation. […] In vivo testing of the novel kinin PET radiotracers was also assessed in a model of tumor metastasis induced by the intracardiac injection of 4T1/luc (bioluminescent) mouse breast cancer cells under ultrasound guidance.

## ^64Cu-NOTA-βAla-Orn^1-Arg^2-Oic^3-Pro^4-Gly^5-(αMe)Phe^6-Ser^7-DβNal^8-Ile^9-OH ({NOTA}-[βAla][Orn]R[Oic]PG[αMeF]S[d2Nal]I-OH; also: 64Cu complexed by NOTA)
[1]
  cellular localization: localize both in cytoplasmic and nuclear compartment
[2]
  survival with PRRT: tendency of prolonging survival
[3]
  non-invasive detection of solid tumors: capacity to identify or detect non-invasively and rapidly human solid tumors
[4]
  anticancer activity / therapeutic efficacy: enhanced anticancer activity
[5]
  PET signal localization versus bioluminescent signals: colocalized with bioluminescent signals from (bone) metastases
